As a reminder, the IC50 is the midpoint of a concentration-inhibition curve. A word on the logD: it is lipophilicity at a set pH, counting ionised and neutral species. One may read the fraction unbound as free concentration divided by total concentration.

The structures appear in SMILES notation.

One data set addresses T1, Monoglyceride lipase (Mus musculus, UniProt O35678).
T1 sequence (O35678 whole entry): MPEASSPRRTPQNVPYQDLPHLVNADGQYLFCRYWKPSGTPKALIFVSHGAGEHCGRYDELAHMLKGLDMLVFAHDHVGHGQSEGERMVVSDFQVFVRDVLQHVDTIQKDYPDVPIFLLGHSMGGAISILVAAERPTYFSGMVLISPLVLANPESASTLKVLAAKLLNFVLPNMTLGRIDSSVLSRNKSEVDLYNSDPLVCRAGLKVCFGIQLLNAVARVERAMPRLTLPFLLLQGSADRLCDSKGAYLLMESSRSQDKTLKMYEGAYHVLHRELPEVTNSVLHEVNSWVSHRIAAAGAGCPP
The data set can be described thus: Inhibition of mouse MAGL using 2-AG as substrate incubated for 30 mins.

Data set [1] is described as follows: Drug uptake in Wistar rat brain Hippocampus at 2 nM incubated for 30 mins by autoradiography. It is filed as ADME, tissue-based. Conditions: 0.5 h, 0.002 µM; call rule not given here.
A short description of data set [2]: Drug uptake in Wistar rat brain Cortex at 2 nM incubated for 30 mins by autoradiography. It is filed as ADME, tissue-based. Particulars: 0.5 h, 0.002 µM.
Data set [3] in a line: Drug uptake in Wistar rat brain Cortex at 5 nM incubated for 30 mins by autoradiography. It counts as ADME, tissue-based. Conditions: 0.5 h, 0.005 µM.
Data set [4] in a line: Drug uptake in C57BL/6 mouse brain at 4.41 to 6.8 nmol/kg, iv and measured after 1 min post infection by PET imaging anlaysis. Conditions: in vivo, dose 4.41-6.8 nmol/kg. It is filed as ADME, organism-based.
Data set [5] is described as follows: Drug uptake in Wistar rat brain Hippocampus at 5 nM incubated for 30 mins by autoradiography. Particulars: 0.5 h, 0.005 µM. It counts as ADME, tissue-based.
The nature of data set [6]: Drug uptake in Wistar rat brain Cerebellum at 2 nM incubated for 30 mins by autoradiography. It is filed as ADME, tissue-based. Conditions: 0.5 h, 0.002 µM.
Data set [7] can be described thus: Drug uptake in Wistar rat brain striatum at 2 nM incubated for 30 mins by autoradiography. It counts as ADME, tissue-based. Particulars: 0.5 h, 0.002 µM.
Data set [8] in a line: Drug uptake in Wistar rat brain Cerebellum at 5 nM incubated for 30 mins by autoradiography. Particulars: 0.5 h, 0.005 µM. It counts as ADME, tissue-based.
A short description of data set [9]: Drug uptake in Wistar rat brain Thalamus at 5 nM incubated for 30 mins by autoradiography. Particulars: 0.5 h, 0.005 µM. It counts as ADME, tissue-based.
Data set [10] is described as follows: Drug uptake in MAGL knockout mouse brain incubated for 30 mins by autoradiography relative to control. It is filed as ADME, tissue-based. Conditions: 0.5 h.
Data set [11] is described as follows: Drug uptake in […] mouse brain incubated for 30 mins by autoradiography. Particulars: 0.5 h. It is filed as ADME, tissue-based.
A short description of data set [12]: Drug uptake in Wistar rat brain striatum at 5 nM incubated for 30 mins by autoradiography. It is filed as ADME, tissue-based. Conditions: 0.5 h, 0.005 µM.
Data set [13] is described as follows: Drug uptake in Wistar rat brain incubated for 30 mins in presence of PF-06809247 by autoradiography. It is filed as ADME, tissue-based. Conditions: 0.5 h.
The nature of data set [14]: Drug uptake in Wistar rat brain Thalamus at 2 nM incubated for 30 mins by autoradiography. It counts as ADME, tissue-based. Conditions: 0.5 h, 0.002 µM.
A short description of data set [15]: Distribution coefficient between 1-octanol and phosphate buffer, logD of the compound after 15 mins by shake flask assay. It is filed as physicochemical. Conditions: 1-octanol/phosphate buffer.
The nature of data set [16]: Drug uptake in Wistar rat brain incubated for 30 mins in presence of SAR127303 by autoradiography. It is filed as ADME, tissue-based. Conditions: 0.5 h.
The nature of data set [17]: Clearance in human liver microsomes by LC/MS analysis. It counts as ADME, Microsome. Particulars: read-out: CLH. On the technique in general: Microsomes from liver hold many membrane-bound enzymes, among them those of drug oxidation.
Data set [18] can be described thus: Drug metabolism in C57BL/6 mouse brain assessed as intact parent compound at 46.50 to 49.39 MBq, iv and measured after 40 mins post injection by radio-UPLC analysis. It is filed as ADME, organism-based. Conditions: dose 46.5-49.39 MBq, read-out: Stability.
Data set [19] in a line: Drug metabolism in C57BL/6 mouse brain assessed as intact parent compound at 46.50 to 49.39 MBq, iv and measured after 20 mins post injection by radio-UPLC analysis. It is filed as ADME, organism-based. Conditions: dose 46.5-49.39 MBq, read-out: Stability.
Data set [20] in a line: Stability in mouse serum at 37 degC for 2 hrs by UPLC analysis. It is filed as ADME, cell-free. Particulars: read-out: Stability.
Data set [21] in a line: Protein binding in human plasma assessed as free plasma concentration incubated for 10 mins by ultracentrifugation. It counts as ADME, cell-free.
Data set [22] in a line: Protein binding in mouse plasma assessed as free plasma concentration incubated for 10 mins by ultracentrifugation. It counts as ADME, cell-free.
The nature of data set [23]: Inhibition of Cynomolgus monkey MAGL using 2-AG as substrate incubated for 30 mins. Details: species or system Macaca fascicularis.
Data set [24] is described as follows: Stability in human serum at 37 degC for 2 hrs by UPLC analysis. It is filed as ADME, cell-free. Particulars: read-out: Stability.
The nature of data set [25]: Clearance in mouse liver microsomes by LC/MS analysis. It counts as ADME, Microsome. Conditions: read-out: CLH.
Data set [26] is described as follows: Drug metabolism in C57BL/6 mouse brain assessed as intact parent compound 46.50 to 49.39 MBq, iv and measured after 60 mins post injection by radio-UPLC analysis. It counts as ADME, organism-based. Conditions: dose 46.5-49.39 MBq, read-out: Stability.
Data set [27] in a line: Metabolic stability in C57BL/6 mouse brain assessed as remaining parent compound 46.50 to 49.39 MBq, iv and measured after 90 mins post injection by radio-UPLC analysis. Conditions: dose 46.5-49.39 MBq, read-out: Stability. It counts as ADME, organism-based.
A short description of data set [28]: Drug uptake in wild type mouse brain at 0.74 at 4.94 nmol/kg, iv and measured after 1 min post infection by PET imaging anlaysis. It is filed as ADME, organism-based. Particulars: in vivo.

As for `COc1ccccc1-c1ccc(N2CC(N3CCN(C(=O)c4ccco4)CC3)CC2=O)cc1` (stereo unspecified), the 50% inhibitory concentration (IC50) at Monoglyceride lipase was determined as 30 nM.

For the compound `O=C(c1ccco1)N1CCN(C2CC(=O)N(c3ccc(N4CC[C@@H](F)C4)cc3)C2)CC1` (stereo partly specified), half-maximal inhibition against Monoglyceride lipase (IC50) was put at 1080 nM.

With `COc1cccc(-c2cccc(N3CC(N4CCN(C(=O)c5ccco5)CC4)CC3=O)c2)c1` (stereo unspecified), the Drug uptake result in [1], in data set [2], in data set [3], in data set [5], in data set [6] and in data set [7] was “Active” each time. The Drug uptake result in data set [8] was “Active”; in data set [9] it was “Active”; in [10], 54%; in data set [11], “Not Active”; in data set [12] it was “Active”; in [13] it was 41%. Besides, the Drug uptake result is “Active” in data set [14] and 41% in [16]. Moreover, the SUV in data set [4] is 0.6. On Monoglyceride lipase, this compound gave a half-maximal inhibitory concentration (IC50) of 15 nM. Further, in [15], the logD at 0.25 h was 2.31.

Regarding `O=C1CC(N2CCN(c3ncccn3)CC2)CN1c1cccc(N2CC[C@H](F)C2)c1` (stereo partly specified), on Monoglyceride lipase, 9300 nM corresponded to half-maximal inhibition (IC50).

At Monoglyceride lipase, `O=C(c1ccco1)N1CCN([C@H]2CC(=O)N(c3ccc(-c4ccc(F)cc4)cc3)C2)CC1` showed a concentration for half-maximal inhibition (IC50) of 138 nM.

For `O=C(c1ccco1)N1CCN([C@@H]2CC(=O)N(c3ccc(-c4ccc(F)cc4)cc3)C2)CC1`, the microsomal CLint in [17] came to 21 µL/min/mg; in data set [25] it was 124 µL/min/mg. The SUV in data set [4] came out at 1.63. In addition, the remaining at 40 min in [18] is 70%. In [19], the remaining at 20 min was found to be 95%. The remaining at 2 h in data set [20] and in data set [24] was above 95% throughout. Moreover, the unbound share (fraction unbound) at 10 min in data set [21] was determined as 0.12; in [22] it was 0.24. Moreover, the IC50 in data set [23] worked out at 14 nM; at Monoglyceride lipase, 8 nM. In addition, the log distribution coefficient (logD) at 0.25 h in data set [15] stood at 2.37. Further, the remaining at 1 h in data set [26] is 68%.

Regarding `COc1cccc(-c2cccc(N3CC(N4CCN(c5ncccn5)CC4)CC3=O)c2)c1` (stereo unspecified), it took 39 nM to reach half-maximal inhibition against Monoglyceride lipase (IC50).

In turn, `O=C(c1ccco1)N1CCN(C2CC(=O)N(c3ccc(-c4ccc(F)nc4)cc3)C2)CC1` (stereo unspecified) gave an IC50 against Monoglyceride lipase of 127 nM.

The compound `O=C(c1ccco1)N1CCN(C2CC(=O)N(c3ccc(-c4ccc(F)cc4)cc3)C2)CC1` (stereo unspecified) displayed a half-inhibitory concentration (IC50) against Monoglyceride lipase of 13 nM.

For the compound `O=C(c1ccco1)N1CCN(C2CC(=O)N(c3ccc(-c4ccccc4F)cc3)C2)CC1` (stereo unspecified), at Monoglyceride lipase, the half-inhibitory concentration (IC50) was found to be 37 nM.

As to `Cc1ccnc(F)c1-c1cccc(N2C[C@H](N3CCN(C(=O)c4nccs4)CC3)CC2=O)c1`, in data set [27], the remaining at 1.5 h amounted to 73%. At Monoglyceride lipase, this compound gave a half-maximal inhibitory concentration (IC50) of 13 nM.

`O=C1CC(N2CCN(c3ncccn3)CC2)CN1c1cccc(-c2ccc(F)nc2)c1` (stereo unspecified): on Monoglyceride lipase, the 50% inhibitory concentration (IC50) stood at 2100 nM.

At Monoglyceride lipase, `COc1cccc(-c2ccc(N3CC(N4CCN(c5ncccn5)CC4)CC3=O)cc2)c1` (stereo unspecified) registered an IC50 of 20 nM.

Compound `O=C1CC(N2CCN(c3ncccn3)CC2)CN1c1cccc(N2CC[C@@H](F)C2)c1` (stereo partly specified) yielded a concentration for half-maximal inhibition (IC50) at Monoglyceride lipase of 10700 nM.

`O=C1CC(N2CCN(c3ncccn3)CC2)CN1c1cccc(-c2cccnc2F)c1` (stereo unspecified) displayed a concentration for half-maximal inhibition (IC50) at Monoglyceride lipase of 305 nM.

As for `COc1cccc(-c2ccc(N3CC(N4CCN(C(=O)c5ccco5)CC4)CC3=O)cc2)c1` (stereo unspecified), the Drug uptake result in data set [1], in data set [2], in [3], in [5], in data set [6] and in data set [7] was “Active” in each case. In addition, the Drug uptake entry is reported as “Active” in data set [8]; “Active” in data set [9]; 41% in [10]; “Not Active” in data set [11]; “Active” in data set [12]; 41% in data set [13]. The Drug uptake result in data set [14] is on record as “Active”; in data set [16], 41%. Also, the SUV in data set [28] amounted to 1.2. On Monoglyceride lipase, this compound showed an IC50 of 9 nM. Further, the logD at 0.25 h in data set [15] was 2.24.

On Monoglyceride lipase, `COc1ccccc1-c1cccc(N2CC(N3CCN(c4ncccn4)CC3)CC2=O)c1` (stereo unspecified) displayed an IC50 of 85 nM.

`O=C(c1ccco1)N1CCN(C2CC(=O)N(c3cccc(-c4cccc(F)c4)c3)C2)CC1` (stereo unspecified) showed a half-inhibitory concentration (IC50) on Monoglyceride lipase of 41 nM.

The compound `O=C(c1ccco1)N1CCN(C2CC(=O)N(c3cccc(N4CC[C@@H](F)C4)c3)C2)CC1` (stereo partly specified) gave a half-inhibitory concentration (IC50) on Monoglyceride lipase of 2920 nM.

The compound `COc1ccccc1-c1ccc(N2CC(N3CCN(c4ncccn4)CC3)CC2=O)cc1` (stereo unspecified) yielded a 50% inhibitory concentration (IC50) on Monoglyceride lipase of 72 nM.

For the compound `O=C1CC(N2CCN(c3ncccn3)CC2)CN1c1ccc(N2CC[C@H](F)C2)cc1` (stereo partly specified), inhibition on Monoglyceride lipase was half-maximal at 80 nM (IC50).

The values above are taken from ChEMBL document CHEMBL5042536, “Development of High Brain-Penetrant and Reversible Monoacylglycerol Lipase PET Tracers for Neuroimaging” (J Med Chem, 2022).
